Reference: ChEMBL document CHEMBL1152009, “Synthesis and biological activity of some 3-acryloxymethyl cephalosporins” (Bioorg Med Chem Lett, 1995)
Converted amounts (≈) assume the structure as drawn.

Columns and labels:
Moraxella catarrhalis = assay: In vitro antibacterial activity against Branhamella catarrhalis Ravasio (resistance due to beta-lactamase); format: functional
Escherichia coli [1] = assay: In vitro antibacterial activity against Escherichia coli 10418; format: functional
Haemophilus influenzae [2] = assay: In vitro antibacterial activity against Haemophilus influenzae Q1; format: functional
Escherichia coli [3] = assay: In vitro antibacterial activity against Escherichia coli 1077 (resistance due to beta-lactamase); format: functional
Klebsiella pneumoniae = assay: In vitro antibacterial activity against Klebsiella pneumoniae T767; format: functional
Staphylococcus aureus [4] = assay: In vitro antibacterial activity against Staphylococcus aureus MB9; format: functional
Streptococcus pyogenes = assay: In vitro antibacterial activity against Streptococcus pyogenes CN10; format: functional
Morganella morganii = assay: In vitro antibacterial activity against Morganella morganii T361; format: functional
Streptococcus pneumoniae [5] = assay: In vitro antibacterial activity against Streptococcus pneumoniae 1716; format: functional
Enterococcus faecalis [6] = assay: In vitro antibacterial activity against Streptococcus faecalis I; format: functional
Staphylococcus aureus [7] = assay: In vitro antibacterial activity against Staphylococcus aureus Oxford; format: functional
Escherichia coli [8] = assay: In vitro antibacterial activity against Escherichia coli ESS; format: functional
Pseudomonas aeruginosa [9] = assay: In vitro antibacterial activity against Pseudomonas aeruginosa 10662; format: functional
Escherichia coli [10] = assay: In vitro antibacterial activity against Escherichia coli JT425 (resistance due to beta-lactamase); format: functional
Staphylococcus aureus [11] = assay: In vitro antibacterial activity against Staphylococcus aureus Russell (resistance due to beta-lactamase); format: functional
Proteus mirabilis = assay: In vitro antibacterial activity against Proteus mirabilis C977; format: functional
Staphylococcus aureus [12] = assay: In vitro antibacterial activity against Staphylococcus aureus V573 (resistance due to modified target enzyme); format: functional
Streptococcus pneumoniae [13] = assay: In vitro antibacterial activity against Streptococcus pneumoniae PU7 (resistance due to modified target enzyme; format: functional
Streptococcus agalactiae = assay: In vitro antibacterial activity against Streptococcus agalactiae 2798; format: functional
[14] = tested on: Staphylococcus epidermidis; assay: In vitro antibacterial activity against Staphylococcus epidermidis PHLN20; format: functional
Staphylococcus aureus [15] = assay: In vitro antibacterial activity against Staphylococcus aureus Russell (resistance due to beta-lactamase; format: functional
Streptococcus pneumoniae [16] = assay: In vitro antibacterial activity against Streptococcus pneumoniae PU7 (resistance due to modified target enzyme); format: functional
Pseudomonas aeruginosa [17] = assay: In vitro antibacterial activity was determined against Pseudomonas aeruginosa 10662; format: functional
Haemophilus influenzae [18] = assay: In vitro antibacterial activity against Haemophilus influenzae NEMC (resistance due to beta-lactamase); format: functional
Staphylococcus aureus [19] = assay: In vitro antibacterial activity against S. aureus MB9; format: functional
[20] = Half-life in a rat liver homogenate preparation; format: ADME
Enterococcus faecalis [21] = assay: In vitro antibacterial activity against S. faecalis I; format: functional

`C/C=C(\C)C(=O)OCC1=C(C(=O)O)N2C(=O)[C@@H](NC(=O)/C(=N\O)c3cnc(N)s3)[C@H]2SC1` showed an MIC (Moraxella catarrhalis) of 4 µg/mL (≈ 8.31 µM), an MIC (Escherichia coli [1]) of 0.12 µg/mL (≈ 0.249 µM) and an MIC (Haemophilus influenzae [2]) of no more than 0.03 µg/mL. The MIC (Escherichia coli [3]) was 0.25 µg/mL (≈ 0.519 µM), the MIC (Klebsiella pneumoniae) was 0.5 µg/mL (≈ 1.04 µM) and the MIC (Staphylococcus aureus [4]) was 0.5 µg/mL (≈ 1.04 µM). It also gave an MIC (Streptococcus pyogenes) of no more than 0.03 µg/mL, an MIC (Morganella morganii) of 0.12 µg/mL (≈ 0.249 µM) and an MIC (Streptococcus pneumoniae [5]) of no more than 0.03 µg/mL. The MIC (Enterococcus faecalis [6]) was greater than 64 µg/mL, the MIC (Staphylococcus aureus [7]) was 0.25 µg/mL (≈ 0.519 µM) and the MIC (Escherichia coli [8]) was no more than 0.03 µg/mL. It also gave an MIC (Pseudomonas aeruginosa [9]) greater than 64 µg/mL, an MIC (Escherichia coli [10]) of 0.5 µg/mL (≈ 1.04 µM) and an MIC (Staphylococcus aureus [11]) of 0.5 µg/mL (≈ 1.04 µM). It also gave an MIC (Proteus mirabilis) of 0.25 µg/mL (≈ 0.519 µM), an MIC (Staphylococcus aureus [12]) of 8 µg/mL (≈ 16.6 µM) and an MIC (Streptococcus pneumoniae [13]) of 0.5 µg/mL (≈ 1.04 µM). The MIC (Streptococcus agalactiae) was no more than 0.03 µg/mL and the MIC [14] was 0.25 µg/mL (≈ 0.519 µM).

For `CC(C)=CC(=O)OCC1=C(C(=O)O)N2C(=O)[C@@H](NC(=O)/C(=N\O)c3cnc(N)s3)[C@H]2SC1`, the MIC (Moraxella catarrhalis) was 4 µg/mL (≈ 8.31 µM), the MIC (Escherichia coli [1]) was 0.06 µg/mL (≈ 0.125 µM) and the MIC (Haemophilus influenzae [2]) was 0.06 µg/mL (≈ 0.125 µM). For the same compound, the MIC (Escherichia coli [3]) was 0.25 µg/mL (≈ 0.519 µM), the MIC (Klebsiella pneumoniae) was 0.5 µg/mL (≈ 1.04 µM) and the MIC (Staphylococcus aureus [4]) was 0.5 µg/mL (≈ 1.04 µM). It also gave an MIC (Streptococcus pyogenes) of less than 0.03 µg/mL, an MIC (Morganella morganii) of 0.25 µg/mL (≈ 0.519 µM) and an MIC (Staphylococcus aureus [15]) of 0.5 µg/mL (≈ 1.04 µM). For the same compound, the MIC (Streptococcus pneumoniae [5]) was less than 0.03 µg/mL, the MIC (Enterococcus faecalis [6]) was 8 µg/mL (≈ 16.6 µM) and the MIC (Streptococcus pneumoniae [16]) was 0.5 µg/mL (≈ 1.04 µM). The MIC (Staphylococcus aureus [7]) was 0.25 µg/mL (≈ 0.519 µM), the MIC (Escherichia coli [8]) was less than 0.03 µg/mL and the MIC (Escherichia coli [10]) was 0.5 µg/mL (≈ 1.04 µM). The MIC (Pseudomonas aeruginosa [17]) was greater than 64 µg/mL, the MIC (Proteus mirabilis) was 0.25 µg/mL (≈ 0.519 µM) and the MIC (Staphylococcus aureus [12]) was 8 µg/mL (≈ 16.6 µM). The MIC (Haemophilus influenzae [18]) was less than 0.03 µg/mL, the MIC (Streptococcus agalactiae) was less than 0.03 µg/mL and the MIC [14] was 0.25 µg/mL (≈ 0.519 µM).

In the case of `C=C(C)C(=O)OCC1=C(C(=O)O)N2C(=O)[C@@H](NC(=O)/C(=N\O)c3cnc(N)s3)[C@H]2SC1`, the MIC (Moraxella catarrhalis) was 0.5 µg/mL (≈ 1.07 µM), the MIC (Escherichia coli [1]) was less than 0.03 µg/mL and the MIC (Haemophilus influenzae [2]) was less than 0.03 µg/mL. For the same compound, the MIC (Escherichia coli [3]) was 0.06 µg/mL (≈ 0.128 µM), the MIC (Klebsiella pneumoniae) was 0.12 µg/mL (≈ 0.257 µM) and the MIC (Streptococcus pyogenes) was less than 0.03 µg/mL. It also gave an MIC (Morganella morganii) of 0.06 µg/mL (≈ 0.128 µM), an MIC (Streptococcus pneumoniae [5]) of less than 0.03 µg/mL and an MIC (Enterococcus faecalis [6]) of 32 µg/mL (≈ 68.5 µM). It also gave an MIC (Staphylococcus aureus [7]) of 0.06 µg/mL (≈ 0.128 µM), an MIC (Escherichia coli [8]) of less than 0.03 µg/mL and an MIC (Pseudomonas aeruginosa [9]) of 64 µg/mL (≈ 137 µM). The MIC (Escherichia coli [10]) was 0.12 µg/mL (≈ 0.257 µM), the MIC (Staphylococcus aureus [11]) was 0.25 µg/mL (≈ 0.535 µM) and the MIC (Proteus mirabilis) was 0.06 µg/mL (≈ 0.128 µM). For the same compound, the MIC (Staphylococcus aureus [12]) was 2 µg/mL (≈ 4.28 µM), the MIC (Streptococcus pneumoniae [13]) was 1 µg/mL (≈ 2.14 µM) and the MIC (Streptococcus agalactiae) was less than 0.03 µg/mL. It also gave an MIC [14] of 0.06 µg/mL (≈ 0.128 µM) and an MIC (Staphylococcus aureus [19]) of 0.25 µg/mL (≈ 0.535 µM).

Compound `CC(=O)OCC1=C(C(=O)O)N2C(=O)[C@@H](NC(=O)/C(=N\O)c3cnc(N)s3)[C@H]2SC1` has an MIC (Moraxella catarrhalis) of 2 µg/mL (≈ 4.53 µM), an MIC (Escherichia coli [1]) of 0.06 µg/mL (≈ 0.136 µM) and an MIC (Haemophilus influenzae [2]) of 0.12 µg/mL (≈ 0.272 µM). It also gave an MIC (Escherichia coli [3]) of 0.06 µg/mL (≈ 0.136 µM), an MIC (Klebsiella pneumoniae) of 0.06 µg/mL (≈ 0.136 µM) and an MIC (Staphylococcus aureus [4]) of 0.5 µg/mL (≈ 1.13 µM). The MIC (Morganella morganii) was 0.06 µg/mL (≈ 0.136 µM), the MIC (Streptococcus pneumoniae [5]) was 0.06 µg/mL (≈ 0.136 µM) and the half-life [20] was no more than 15 min. The MIC (Staphylococcus aureus [7]) was 0.25 µg/mL (≈ 0.566 µM), the MIC (Escherichia coli [8]) was less than 0.03 µg/mL and the MIC (Pseudomonas aeruginosa [9]) was greater than 32 µg/mL. It also gave an MIC (Escherichia coli [10]) of 1 µg/mL (≈ 2.27 µM), an MIC (Staphylococcus aureus [11]) of 0.5 µg/mL (≈ 1.13 µM) and an MIC (Proteus mirabilis) of 0.06 µg/mL (≈ 0.136 µM). The MIC (Staphylococcus aureus [12]) was greater than 32 µg/mL, the MIC (Streptococcus pneumoniae [13]) was 2 µg/mL (≈ 4.53 µM) and the MIC (Haemophilus influenzae [18]) was 0.06 µg/mL (≈ 0.136 µM). For the same compound, the MIC (Streptococcus agalactiae) was 0.06 µg/mL (≈ 0.136 µM), the MIC (Enterococcus faecalis [21]) was 4 µg/mL (≈ 9.06 µM) and the MIC [14] was 0.25 µg/mL (≈ 0.566 µM).

For `CO/N=C(\C(=O)N[C@@H]1C(=O)N2C(C(=O)O)=C(COC(C)=O)CS[C@H]12)c1csc(N)n1` [CEFOTAXIME], the MIC (Moraxella catarrhalis) was 0.25 µg/mL (≈ 0.549 µM), the MIC (Escherichia coli [1]) was less than 0.03 µg/mL and the MIC (Haemophilus influenzae [2]) was less than 0.03 µg/mL. It also gave an MIC (Klebsiella pneumoniae) of 0.06 µg/mL (≈ 0.132 µM), an MIC (Staphylococcus aureus [4]) of 4 µg/mL (≈ 8.78 µM) and an MIC (Streptococcus pyogenes) of less than 0.03 µg/mL. The MIC (Morganella morganii) was 2 µg/mL (≈ 4.39 µM), the MIC (Streptococcus pneumoniae [5]) was less than 0.03 µg/mL and the half-life [20] was no more than 15 min. The MIC (Staphylococcus aureus [7]) was 2 µg/mL (≈ 4.39 µM), the MIC (Escherichia coli [8]) was less than 0.03 µg/mL and the MIC (Pseudomonas aeruginosa [9]) was 16 µg/mL (≈ 35.1 µM). It also gave an MIC (Escherichia coli [10]) of 0.5 µg/mL (≈ 1.1 µM), an MIC (Staphylococcus aureus [11]) of 2 µg/mL (≈ 4.39 µM) and an MIC (Proteus mirabilis) of less than 0.03 µg/mL. It also gave an MIC (Staphylococcus aureus [12]) of 32 µg/mL (≈ 70.3 µM), an MIC (Streptococcus pneumoniae [13]) of 2 µg/mL (≈ 4.39 µM) and an MIC (Streptococcus agalactiae) of 0.12 µg/mL (≈ 0.263 µM). It also gave an MIC (Enterococcus faecalis [21]) greater than 64 µg/mL and an MIC [14] of 1 µg/mL (≈ 2.2 µM).
